Results taken from patent publication US20160143929A1, “ADMINISTRATION OF GL[…] THE TREATMENT OF CANCER” (Threshold Pharmaceuticals, Inc., priority 2008, published 2016).

Experiments:
[1] = Phase I study: pharmacokinetics of Glufosfamide by 6 h intravenous infusion; conditions: over the dose range studied, 3200-6000 mg/m^2
Description: Patients were ineligible if they had symptomatic brain metastasis; other nonmalignant systemic disease; an active, uncontrolled infection; preexisting nephrotoxicity of grade 3 or 4 (NCI Common Toxicity Criteria—NCI-CTC) resulting from previous therapy; or infection with HIV, HBV, or HCV. They were also ineligible if they were pregnant or nursing, or if they required steroid therapy.
This open-label, dose-escalation Phase I study was based on intravenous infusion of the drug in three cohorts of Japanese subjects with malignant solid tumors. Glufosfamide was administered intravenously over 6 h in a total volume of 1000 mL of normal saline at doses of 3200, 4500, and 6000 mg/m^2. One-quarter of the dose was administered during the first 30 min at a rate of 500 mL/h, with the remainder of the dose being administered over the subsequent 330 min at a rate of 136 mL/h. Glufosfamide was administered on day 1 once every 3 weeks. Antiemetic premedication was not mandatory in the protocol. Granulocyte colony-stimulating factor (G-CSF) was administered for febrile neutropenia, sepsis with neutropenia, or recurrent neutropenia of grade 4.
Pharmacokinetic sampling was performed for the first and second cycles.

[2] = Phase I dose-escalation study: safety, DLT, MTD and RD; type: in vivo, human
Experimental: (§1) A medical history was obtained from each patient, and physical examinations and routine laboratory evaluations were performed before treatment initiation and weekly thereafter, Chest and other relevant x-rays were obtained during screening and after alternate cycles of treatment. Adverse events were monitored and recorded throughout the study and were graded according to NCI-CTC, version 3.0. The tumor response was assessed for measurable target lesions according to Response Evaluation Criteria in Solid Tumors (RECIST).
(§2) Antiemetic premedication was not mandatory in the protocol.
The starting dose of Glufosfamide was 3200, which was increased to 4500 and then to 6000 in subsequent cohorts of at least three patients. The following adverse events during cycle 1 were defined as DLTs (dose-limiting toxicities): neutropenia of grade 4 (ANC of <500/uL) for >7 days; febrile neutropenia (fever of >38 degrees C. with an ANC of <1000/uL); thrombocytopenia (platelet count of <25,000/uL); nausea or vomiting of grade > (or equal to) 3 despite maximal antiemetic therapy; and any other nonhematologic toxicity of grade > (or equal to) 3 considered drug-related. If any patient experienced a DLT during the first cycle, three additional patients were treated at the same dose. Patients who experienced a DLT could continue Glufosfamide therapy at the preceding dose level. Treatment in subsequent courses was reinitiated only after hematologic recovery (ANC of > (or equal to) 1500/uL, platelet count of > (or equal to) 100,000/uL) and resolution of all other toxicities to grade < (or equal to) 1 or baseline intensity. The MTD (maximum tolerated dose) was defined as the dose at which two or more patients experienced a DLT in the first cycle. The RD (recommended dose) was defined as the dose level immediately below the MTD. In accordance with the methods of the invention, both the RD and MTD (and intermediate doses) can be administered to patients, with the RD preferred for Japanese and other patients of Asian origin and the MID preferred for other patients.

pancreatic cancer = pancreatic cancer patients relapsed after or not responding to gemcitabine; cited from earlier work
[3] = Caucasian patients, intravenous infusion; cited from earlier work
solid tumors = test: Phase I study: tumor response by RECIST; type: in vivo, human
Experimental: as §1, §2

Row | SMILES | dose linearity of pharmacokinetics [1] | patients with neutropenia of grade 4 ([2]; 4500 mg/m^2, cycle 2, without infection, short-lived, 13 patients) | patients with grade 4 anemia requiring red blood cell transfusion ([2]; 4500 mg/m^2, cycle 3) | patients with DLTs ([2]; 6000 mg/m^2, cycle 1, grade 3 metabolic acidosis, hypophosphatemia, hypokalemia) | MTD (maximum tolerated dose) ([2]; Japanese patients, 6 h iv infusion day 1 every 3 weeks, dose at which two or more patients had a DLT in cycle 1) [mg/m^2] | RD (recommended dose) ([2]; Japanese patients, 6 h iv infusion every 3 weeks, dose level immediately below MTD) [mg/m^2] | predominant nonhematologic toxicities ([2]; all dose levels, generally transient and reversible) | DLTs ([2]; two lowest doses (3200 and 4500 mg/m^2), cycle 1) | Phase III trial outcome (pancreatic cancer) | anticancer activity in Phase III trial (pancreatic cancer) | dose that is well tolerated [3] [mg/m^2] | partial response (solid tumors; among thirteen evaluable patients, advanced gall bladder cancer, 4500 mg/m^2, after two cycles) | subjects showing stabilization of disease (solid tumors; among thirteen evaluable patients, colorectal (4), gastric, thymic cancer, thymoma, non-small cell lung cancer) | patients with evidence of antitumor activity (solid tumors; among thirteen patients evaluable for response) | duration of partial response (solid tumors; person, advanced gall bladder cancer, 4500 mg/m^2, two cycles)
1 | O=P(NCCCl)(NCCCl)O[C@@H]1O[C@H](CO)[C@@H](O)[C@H](O)[C@H]1O [Glufosfamide, beta-D-glucosyl-isophosphoramide mustard] | linear pharmacokinetics | only one patient | one patient | two of three treated patients experienced DLTs | 6000 | 4500 | fatigue, nausea, a high urinary concentration of beta 2 microglobulin, hypophosphatemia, hypokalemia, and metabolic acidosis | No DLTs occurred | did not meet its endpoints | did exhibit anticancer activity in some patients | 6000 | one partial response | eight subjects | nine patients | greater than five months
2 | O=P(O)(NCCCl)NCCCl [IPM, isophosphoramide mustard] | linear pharmacokinetics |  |  |  |  |  |  |  |  |  |  |  |  |  | 
